Assay results taken from patent publication US9862754B2, “Peptide analogs for treating diseases and disorders” (KeyBioscience AG, priority 2011, dated 2018).
Numbered stars: 1 amine (or outer) side, 2 acyl side, 3 side chain; on linkers, the order of the positions; unused ones are H or OH. * marks the point of attachment. Suc = O=C(CCC(=O)[*:2])[*:1]; Propionyl = CCC(=O)*

How the values were obtained:
Type in all cases: in vivo, rat
[1] = Example 3: short-term oral treatment, body weight and food intake in DIO rats; conditions: for reduction in body weight vs oral sCT at same dose: DIO rats; for energy balance vs equivalent doses of oral sCT: 0.5, 1 and 2 mg/kg doses p.o., male DIO rats
Protocol: The study was performed in male Levin-DIO rats (diet-sensitive) and Levin-DR (diet-resistant) (TacLevin: CD (SD) DIO) (Taconic, Hudson, N.Y., U.S.A.) obtained at age 6-7 weeks. On arrival, DIO rats were given high fat diet (60 kcal %) (#D12495, Research Diets Inc., New Brunswick, N.J., USA) and kept on the same diet for 12 weeks prior to and during the experiment. DR rats were given low-fat diet and served as control group. Animals were pair-wise housed throughout the study. Rats were handled and pre-dosed once daily with MilliQ H2O for 2-3 weeks prior to experimental start to reduce stress-induced hyperglycemia. On the day prior to study start animals were given a single dose of vehicle. Baseline parameters were recorded in an overnight fasting (16 h) condition. Rats were randomized into treatment groups based on fasting body weight (BW) and fasting plasma glucose (FPG). Body weight, food and water intake were recorded prior to and at study end.
Animals treated with oral sCT or oral UGP284/UGP298/UGP302 received doses of 0.5 mg/kg, 1.0 mg/kg or 2.0 mg/kg combined with 150 mg/kg 5-CNAC—all dissolved in milliQ H2O.
(§1) Drug administration were given by per oral (p.o.) gavage b.i.d. during the study period and as single dose in the morning prior to start of OGTT.
(§2) Following the initial (1st) OGTT, animals were randomized into treatment groups based on FBG and BW. Animals were pre-treated 3 days (b.i.d.) prior to 2nd OGTT. The study was performed in an x-over design with each animal being its own control.
(§3) Statistical analysis was performed by one-way ANOVA followed by the Dunnett's post hoc test for multiple comparison. Student's t-test was performed to compare two paired group. All analysis was performed using GRAPHPAD PRISM software (GraphPad Prism, San Diego, Calif. U.S.A). Incremental area under curve (iAUC) during OGTT was calculated by the trapezoidal method. A value of P<0.05 was considered to be significant. All data are presented as mean±standard error of the mean (SEM).
FIG. 9A, FIG. 9B, FIG. 9C, FIG. 9D, FIG. 9E, and FIG. 9F show the effect of three different doses of oral sCT/UGP284/UGP298/UGP302 containing 0.5, 1 and 2 mg/kg compound were applied by gavage twice daily to 4 groups of rats for 3 days. * P<0.05, ** P<0.01 vs oral sCT. Results are presented as means±SEM.

[2] = Example 3: OGTT after 3 days of oral treatment in DIO rats; conditions: doses of 0.5, 1 and 2 mg/kg p.o.
Protocol: as §1
Animals were given 2 g/kg single dose dissolved in milliQ H20.
as §2
OGTT Following Overnight Fasting (16 h):
Blood sampling and glycemia were measured by heated tail venous puncture. Whole blood glucose levels were determined with an ACCU-CHEK® Avia blood glucose meter (Roche Diagnostics, Rotkreuz, Switzerland). Blood (approx 300 μl) is collected in 1 ml MiniCollect K3EDTA plasma-tube (Greiner-Bio-One GmbH, Frickenhausen, Germany), inverted, and stored on ice. Tubes are centrifuged 3000×g (5000 rpm in table centrifuge) for 10 min at 4° C. and plasma obtained. Plasma samples are stored at −20° C. until analysis. A total of ˜2.5 ml blood is obtained during OGTT (˜0.3% of body weight).
as §3
FIG. 10A, FIG. 10B, FIG. 10C, FIG. 10D, FIG. 10E, and FIG. 10F show the effect of oral sCT versus oral UGPs on glucose tolerance during OGTT in DIO rats. Three different doses of oral sCT/UGP284/UGP298/UGP302 containing 0.5, 1 and 2 mg/kg compound were applied by gavage twice daily to 4 groups of rats for 3 days prior to OGTT. The experimental set-up was a cross-over design. * P<0.05, ** P<0.01, *** P<0.001 vs oral vehicle. Results are presented as means±SEM.

[3] = Example 7: combination with metformin in Zucker Diabetic Fatty rats, FPG, PPG, HbA1c; conditions: ZDF rats; 8 weeks once daily; metformin 400 mg/kg/day oral, UGP302 5 μg/kg/day s.c.
Protocol: (§4) To assess the potential of UGP302 (SEQ ID NO: 15) in combination with metformin, Zucker Diabetic Fatty rats were used. At the age of 6 weeks 40 rats were randomized into four groups according to HbA1c, FPG and BW. The groups were: Control (Vehicle), Metformin 400 mg/kg/day, UGP302 5 μg/kg/day and the combination of the two molecules in the stated respective amounts. The treatments were given once daily, and metformin was dosed orally, while UGP302 was given subcutaneously, and the animals were treated for 8 weeks. Fasting blood glucose (FPG) and non-fasted blood glucose (PPG) were monitored biweekly, while HbA1c was measured at termination.

[4] = Example 7: oral glucose tolerance test in Zucker Diabetic Fatty rats; conditions: ZDF rats; metformin 400 mg/kg/day oral, UGP302 5 μg/kg/day s.c.
Protocol: as §4
(§5) To further assess the effect of both single doses of each molecule and the combination of these at those same doses, the rats underwent an oral glucose tolerance test (OGTT, FIGS. 23A-23B) and an insulin tolerance test (ITT, FIGS. 24A-24B).

[5] = Example 7: insulin tolerance test in Zucker Diabetic Fatty rats; conditions: ZDF rats; metformin 400 mg/kg/day oral, UGP302 5 μg/kg/day s.c.
Protocol: as §4, §5

Compound	reduction in body weight vs oral sCT at same dose ([1]; 2 mg/kg p.o. b.i.d. for 3 days)	energy balance vs equivalent doses of oral sCT [1]	glucose tolerance during OGTT [2]	reduction in body weight vs oral sCT at same dose ([1]; 1 mg/kg p.o. b.i.d. for 3 days)	fasting blood glucose (FPG) [3]	non-fasted blood glucose (PPG) [3]	glucose tolerance (OGTT) [4]	insulin tolerance (ITT) [5]
PrCSNLSTCVLGKLSQELHKLQTYPRTNTGSGTP-NH2 (Propionyl-CSNLSTCVLGKLSQELHKLQTYPRTNTGSGTP-NH2; ends and bridges not checked) [UGP284, calcitonin mimetic]	significantly difference at 2 mg/kg dose	superiority to equivalent doses of oral sCT	improvement in glucose tolerance	–	–	–	–	–
SuccCSNLSTCVLGKLSQELHKLQTYPRTNTGSGTP-NH2 (Suc-CSNLSTCVLGKLSQELHKLQTYPRTNTGSGTP-NH2; ends and bridges not checked) [UGP298, calcitonin mimetic]	significantly different when compared with oral sCT	superiority to equivalent doses of oral sCT	improvement in glucose tolerance	significantly different when compared with oral sCT	–	–	–	–
CN(C)C(=N)N=C(N)N [metformin, reference compound]	–	–	–	–	reduced	reduced	individually improve	individually improve
